PubChem BioAssay AID330 (DTP/NCI, 2004)
Where “and” joins values, the source holds several entries; their conditions need not be identical. Identical values can stand only once. Inconclusive results and toxic doses are left out. The calls were made as follows: active = survival T/C of 150% or more; inactive = T/C below 125% in these data.

Test system: P388 leukemia ip, CD2F1 mice, survival T/C
Experiment: NCI In Vivo Anticancer Drug Screen. Data for tumor model P388 Leukemia (intraperitoneal) in CD2F1 (CDF1) mice
Conditions: endpoint: median survival time, higher = longer survival
How it was run: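 Mice carrying the transplanted tumor received test compound or vehicle. Survival was recorded in each group, and the value is the treated-group measurement divided by that of the vehicle-treated control group.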

[1] = dose: 100.0 mg/kg/injection, schedule: Q01DX009 (ip), vehicle: saline
[2] = dose: 30.0 mg/kg/injection, schedule: Q01DX005 (ip), vehicle: Klucel (hydroxypropylcellulose) (HPC)
[3] = dose: 60.0 mg/kg/injection, schedule: Q01DX005 (ip), vehicle: Klucel (hydroxypropylcellulose) (HPC)
[4] = dose: 120.0 mg/kg/injection, schedule: Q01DX005 (ip), vehicle: Klucel (hydroxypropylcellulose) (HPC)
[5] = dose: 240.0 mg/kg/injection, schedule: Q01DX005 (ip), vehicle: Klucel (hydroxypropylcellulose) (HPC)
[6] = dose: 50.0 mg/kg/injection, schedule: Q01DX005 (ip), vehicle: saline with Tween-80
[7] = dose: 100.0 mg/kg/injection, schedule: Q01DX005 (ip), vehicle: saline with Tween-80
[8] = dose: 200.0 mg/kg/injection, schedule: Q01DX005 (ip), vehicle: saline with Tween-80
[9] = dose: 50.0 mg/kg/injection, schedule: Q01DX005 (ip), vehicle: Klucel (hydroxypropylcellulose) (HPC)
[10] = dose: 100.0 mg/kg/injection, schedule: Q01DX005 (ip), vehicle: Klucel (hydroxypropylcellulose) (HPC)
[11] = dose: 200.0 mg/kg/injection, schedule: Q01DX005 (ip), vehicle: Klucel (hydroxypropylcellulose) (HPC)

Measured: T/C

CCC[CH2][Sn]([CH2]CCC)([CH2]CCC)[CH2]S(=O)(=O)O
inactive: dose: 6.25 mg/kg/injection, schedule: Q01DX009 (ip), vehicle: saline 108 % of control | dose: 12.5 mg/kg/injection, schedule: Q01DX009 (ip), vehicle: saline 119 % of control | [1] 116 % of control

O=C1C(N=Nc2ccc([N+](=O)[O-])cc2)Sc2nc3ccccc3n21 (stereo not given)
inactive: dose: 7.5 mg/kg/injection, schedule: Q01DX005 (ip), vehicle: Klucel (hydroxypropylcellulose) (HPC) 99 % of control | dose: 15.0 mg/kg/injection, schedule: Q01DX005 (ip), vehicle: Klucel (hydroxypropylcellulose) (HPC) 92 % of control | [2] 90 % of control

COc1c2occc2c(NC(=O)CCl)c2ccc(=O)oc12
inactive: dose: 100.0 mg/kg/injection, schedule: Q04DX002 (ip), vehicle: saline with Tween-80 100 % of control | dose: 200.0 mg/kg/injection, schedule: Q04DX002 (ip), vehicle: saline with Tween-80 93 % of control

Nc1cc(=O)[nH]c(=S)n1-c1ccccn1
inactive: dose: 75.0 mg/kg/injection, schedule: Q01DX001 (ip), vehicle: saline with Tween-80 104 % of control | dose: 150.0 mg/kg/injection, schedule: Q01DX001 (ip), vehicle: saline with Tween-80 100 % of control | dose: 300.0 mg/kg/injection, schedule: Q01DX001 (ip), vehicle: saline with Tween-80 104 % of control

O=C1CSC(c2cccs2)N1c1nncs1 (stereo not given)
inactive: [3] 100 % of control | [4] 100 % of control
active: [5] 172 % of control

NC(=O)CNCc1ccccc1
inactive: [6] 94 % of control | [7] 99 % of control | [8] 94 % of control

Nn1nnnc1-c1ccccc1
inactive: dose: 50.0 mg/kg/injection, schedule: Q01DX009 (ip), vehicle: Klucel (hydroxypropylcellulose) (HPC) 96 % of control | dose: 100.0 mg/kg/injection, schedule: Q01DX009 (ip), vehicle: Klucel (hydroxypropylcellulose) (HPC) 100 % of control | dose: 200.0 mg/kg/injection, schedule: Q01DX009 (ip), vehicle: Klucel (hydroxypropylcellulose) (HPC) 95 % of control

COC(=O)c1nnn(-c2ccccc2)n1
inactive: dose: 25.0 mg/kg/injection, schedule: Q01DX005 (ip), vehicle: Klucel (hydroxypropylcellulose) (HPC) 99 % of control | [9] 101 % of control | [10] 101 % of control

Cc1ccc(C(=O)N=Nc2c(Cl)c(O)c3ccccc3c2O)cc1
inactive: [9] 103 % of control | [10] 99 % of control | [11] 103 % of control

O=C(NC(Cc1ccc(Br)cc1)C(=O)O)c1cccc(Br)c1 (stereo not given)
inactive: [9] 91 % of control | [10] 102 % of control | [11] 104 % of control

c1ccc2sc(SCCCCCCCCCCCCSc3nc4ccccc4s3)nc2c1
inactive: dose: 50.0 mg/kg/injection, schedule: Q01DX005 (ip), vehicle: Klucel + Tween-80 98 % of control | dose: 100.0 mg/kg/injection, schedule: Q01DX005 (ip), vehicle: Klucel + Tween-80 94 % of control | dose: 200.0 mg/kg/injection, schedule: Q01DX005 (ip), vehicle: Klucel + Tween-80 96 % of control

C[CH2][Ge]([CH2]C)[CH2]/C=C\[CH2][Ge]([CH2]C)[CH2]C
inactive: dose: 50.0 mg/kg/injection, schedule: Q01DX009 (ip), vehicle: saline with Tween-80 94 % of control | dose: 100.0 mg/kg/injection, schedule: Q01DX009 (ip), vehicle: saline with Tween-80 117 % of control

Cc1ccc(S(=O)(=O)N/N=C/c2ccsc2)cc1
inactive: dose: 100.0 mg/kg/injection, schedule: Q04DX003 (ip), vehicle: Klucel (hydroxypropylcellulose) (HPC) 92 % of control | dose: 200.0 mg/kg/injection, schedule: Q04DX003 (ip), vehicle: Klucel (hydroxypropylcellulose) (HPC) 106 % of control | dose: 400.0 mg/kg/injection, schedule: Q04DX003 (ip), vehicle: Klucel (hydroxypropylcellulose) (HPC) 100 % of control

O=C1NC(=O)[C@@]2(CCOc3ccc(F)cc32)N1
inactive: [9] 95 % of control | [10] 100 % of control | [11] 100 % of control

Nc1[nH]c(=S)[nH]c(=O)c1NS(=O)(=O)c1cccc([N+](=O)[O-])c1
inactive: [2] 103 % of control and 105 % of control | [3] 100 % of control and 97 % of control | [4] 98 % of control and 97 % of control | [5] 99 % of control and 106 % of control

O=C1CSc2nc3c(I)cc(I)cc3c(=O)n21
inactive: [9] 101 % of control | [10] 100 % of control | [11] 98 % of control

CC(=O)C1=C(N)OCCC1
inactive: dose: 50.0 mg/kg/injection, schedule: Q01DX009 (ip), vehicle: saline 114 % of control | [1] 107 % of control | dose: 200.0 mg/kg/injection, schedule: Q01DX009 (ip), vehicle: saline 109 % of control

O=C1c2cccc(Cl)c2Cc2c(Cl)cccc21
inactive: dose: 100.0 mg/kg/injection, schedule: Q01DX001 (ip), vehicle: saline with Tween-80 105 % of control | dose: 200.0 mg/kg/injection, schedule: Q01DX001 (ip), vehicle: saline with Tween-80 99 % of control | dose: 400.0 mg/kg/injection, schedule: Q01DX001 (ip), vehicle: saline with Tween-80 92 % of control

O=[N+]([O-])c1ccccc1/C(=N\O)c1cccs1
inactive: dose: 100.0 mg/kg/injection, schedule: Q04DX002 (ip), vehicle: Klucel (hydroxypropylcellulose) (HPC) 107 % of control | dose: 200.0 mg/kg/injection, schedule: Q04DX002 (ip), vehicle: Klucel (hydroxypropylcellulose) (HPC) 100 % of control

CCOC(=O)C1=C(Nc2ccc(F)cc2)C(=O)N(C(C)(C)C)C1
inactive: dose: 60.0 mg/kg/injection, schedule: Q01DX005 (ip), vehicle: saline with Tween-80 100 % of control | dose: 120.0 mg/kg/injection, schedule: Q01DX005 (ip), vehicle: saline with Tween-80 106 % of control | dose: 240.0 mg/kg/injection, schedule: Q01DX005 (ip), vehicle: saline with Tween-80 93 % of control

Cc1cnnc2c3ccccc3nn12
inactive: [9] 99 % of control | [10] 101 % of control | [11] 101 % of control

C=C1C(O)C2OC(=O)C(=C)C2C(OC(=O)/C(C)=C/C)CC2(C)OC2C2OC12 (stereo not given)
inactive: dose: 4.0 mg/kg/injection, schedule: Q01DX005 (ip), vehicle: Klucel (hydroxypropylcellulose) (HPC) 96 % of control | dose: 8.0 mg/kg/injection, schedule: Q01DX005 (ip), vehicle: Klucel (hydroxypropylcellulose) (HPC) 103 % of control | dose: 16.0 mg/kg/injection, schedule: Q01DX005 (ip), vehicle: Klucel (hydroxypropylcellulose) (HPC) 100 % of control | dose: 32.0 mg/kg/injection, schedule: Q01DX005 (ip), vehicle: Klucel (hydroxypropylcellulose) (HPC) 116 % of control | [9] 115 % of control | dose: 64.0 mg/kg/injection, schedule: Q01DX005 (ip), vehicle: Klucel (hydroxypropylcellulose) (HPC) 116 % of control | [10] 109 % of control | [11] 103 % of control

C=C1CC2(CCC23CC(=C)C(=O)O3)OC1=O (stereo not given)
inactive: dose: 5.0 mg/kg/injection, schedule: Q01DX009 (ip), vehicle: Klucel (hydroxypropylcellulose) (HPC) 100 % of control | dose: 10.0 mg/kg/injection, schedule: Q01DX009 (ip), vehicle: Klucel (hydroxypropylcellulose) (HPC) 116 % of control | dose: 20.0 mg/kg/injection, schedule: Q01DX009 (ip), vehicle: Klucel (hydroxypropylcellulose) (HPC) 117 % of control

C[C@@H]1C[C@H]2C(=CC1=O)CC[C@@H]1[C@@H]2CC[C@]2(C)[C@@H](O)CC[C@@H]12
inactive: dose: 100.0 mg/kg/injection, schedule: Q04DX003 (ip), vehicle: saline with Tween-80 100 % of control | dose: 200.0 mg/kg/injection, schedule: Q04DX003 (ip), vehicle: saline with Tween-80 109 % of control | dose: 400.0 mg/kg/injection, schedule: Q04DX003 (ip), vehicle: saline with Tween-80 100 % of control

COC(=O)c1c(C(=O)OC)c(-c2cccc(Cl)c2)n2c1CCC2
inactive: dose: 25.0 mg/kg/injection, schedule: Q01DX005 (ip), vehicle: saline with Tween-80 98 % of control | [6] 100 % of control | [7] 100 % of control and 93 % of control | [8] 100 % of control

COc1cc2ccnc(/C=N\O)c2cc1OC
inactive: dose: 12.5 mg/kg/injection, schedule: Q01DX009 (ip), vehicle: distilled water + Tween-80 102 % of control | dose: 25.0 mg/kg/injection, schedule: Q01DX009 (ip), vehicle: distilled water + Tween-80 116 % of control | dose: 50.0 mg/kg/injection, schedule: Q01DX009 (ip), vehicle: distilled water + Tween-80 109 % of control | dose: 100.0 mg/kg/injection, schedule: Q01DX009 (ip), vehicle: distilled water + Tween-80 102 % of control | dose: 200.0 mg/kg/injection, schedule: Q01DX009 (ip), vehicle: distilled water + Tween-80 91 % of control | dose: 400.0 mg/kg/injection, schedule: Q01DX009 (ip), vehicle: distilled water + Tween-80 93 % of control
